Experiment [1] concerns the target T1, cloned human H3 receptors (Homo sapiens, UniProt Q9Y5N1).
T1 construct: expressed in transfected cells
The experiment is described as follows: H3 Receptor Binding (Human). The settings on record: cloned human H3 receptors stably expressed in SK-N-MC cells; average of the results obtained; read-out: Human H3 Ki. Here is the method: H3 Receptor Binding (Human)
Binding of compounds to the cloned human H3 receptors, stably expressed in SK-N-MC cells, was performed as described by Barbier, A. J. et al. (Br. J. Pharmacol. 2004, 143(5), 649-661).

Experiment [2] has as its target T2, Rat H3 (Rattus norvegicus, UniProt Q9QYN8). The experiment is described as follows: H3 Receptor Binding (Rat). The following applies: rat brain membranes without cerebellum, 0.8 nM N-[3H]-α-methylhistamine, 60 min at 25° C.; average of the results obtained. The procedure: H3 Receptor Binding (Rat)
A rat brain without cerebellum (Zivic Laboratories Inc., Pittsburgh, Pa.) was homogenized in 50 mM Tris-HCl/5 mM EDTA and centrifuged at 1,000 rpm for 5 min. The supernatant was removed and recentrifuged at 15,000 rpm for 30 min. Pellets were rehomogenized in 50 mM Tris/5 mM EDTA (pH 7.4). Membranes were incubated with 0.8 nM N-[^3H]-α-methylhistamine plus/minus test compounds for 60 min at 25° C. and harvested by rapid filtration over GF/C glass fiber filters (pretreated with 0.3% polyethylenimine) followed by four washes with buffer. Nonspecific binding was defined in the presence of 100 μM histamine.
Target sequence in this assay (Q9QYN8 1-397 isoform Q9QYN8-3): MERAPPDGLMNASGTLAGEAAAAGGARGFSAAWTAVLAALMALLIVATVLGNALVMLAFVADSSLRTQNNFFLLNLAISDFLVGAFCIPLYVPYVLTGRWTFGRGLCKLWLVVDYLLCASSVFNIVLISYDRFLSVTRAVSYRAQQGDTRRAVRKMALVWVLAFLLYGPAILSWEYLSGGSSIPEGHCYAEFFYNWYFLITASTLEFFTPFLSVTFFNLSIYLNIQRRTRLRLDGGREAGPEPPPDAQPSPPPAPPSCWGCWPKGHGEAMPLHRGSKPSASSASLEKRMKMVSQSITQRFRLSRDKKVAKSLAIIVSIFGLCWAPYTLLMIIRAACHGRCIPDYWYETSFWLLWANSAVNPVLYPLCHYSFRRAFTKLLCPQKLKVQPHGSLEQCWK

The target in experiment [3] is T3, human H3 receptor (Homo sapiens, UniProt Q9Y5N1).
T3 construct: expressed in transfected cells; host or cells: SK-N-MC sublines with a reporter construct
T3 sequence (Q9Y5N1 whole entry): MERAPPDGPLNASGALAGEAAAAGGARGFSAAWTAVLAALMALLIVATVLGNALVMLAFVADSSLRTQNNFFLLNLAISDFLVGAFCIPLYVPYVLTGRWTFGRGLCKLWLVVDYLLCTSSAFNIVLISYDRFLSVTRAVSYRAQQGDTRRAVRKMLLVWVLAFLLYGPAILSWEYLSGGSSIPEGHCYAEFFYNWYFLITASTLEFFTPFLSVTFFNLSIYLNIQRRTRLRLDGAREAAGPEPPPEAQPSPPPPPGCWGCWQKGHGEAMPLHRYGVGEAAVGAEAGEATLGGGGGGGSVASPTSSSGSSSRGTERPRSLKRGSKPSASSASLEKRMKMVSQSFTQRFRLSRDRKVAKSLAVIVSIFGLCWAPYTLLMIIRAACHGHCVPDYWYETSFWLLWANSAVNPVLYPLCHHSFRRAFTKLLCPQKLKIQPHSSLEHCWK
The experiment is described as follows: Cyclic AMP Accumulation (human H3 receptor). It is filed as cell-based. An excerpt: (§1) Sublines of SK-N-MC cells were created that expressed a reporter construct and either the human or rat H3 receptor.

Experiment [4] addresses T2, Rat H3. Kind of experiment: cell-based.
Excerpt: as §1
Target sequence in this assay (Q9QYN8 whole entry): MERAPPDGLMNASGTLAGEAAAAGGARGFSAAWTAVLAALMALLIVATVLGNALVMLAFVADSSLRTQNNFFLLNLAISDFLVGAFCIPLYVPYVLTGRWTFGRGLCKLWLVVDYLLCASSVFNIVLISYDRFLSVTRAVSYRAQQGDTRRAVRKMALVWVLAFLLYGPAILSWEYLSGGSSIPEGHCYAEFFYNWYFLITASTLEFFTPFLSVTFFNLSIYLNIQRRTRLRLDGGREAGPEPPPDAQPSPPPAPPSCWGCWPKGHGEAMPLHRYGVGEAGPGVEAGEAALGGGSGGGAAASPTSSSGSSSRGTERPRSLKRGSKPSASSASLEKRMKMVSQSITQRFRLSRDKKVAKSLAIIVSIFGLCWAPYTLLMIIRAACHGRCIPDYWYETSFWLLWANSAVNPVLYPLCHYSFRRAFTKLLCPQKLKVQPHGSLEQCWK

[5] abbreviates: SK-N-MC subline expressing reporter construct and human H3 receptor, average.
The mark [6] stands for this setting: SK-N-MC subline expressing reporter construct and rat H3 receptor, average, read-out: Rat pA2 (converted).
The mark [7] stands for this setting: SK-N-MC subline expressing reporter construct and human H3 receptor, average, read-out: Human pA2 (converted).
[8] abbreviates: SK-N-MC subline expressing reporter construct and rat H3 receptor, average.

Where a name gives a salt, the structure may show the parent alone. Read-outs that look alike come from different tables or passages of the source.

T1 sequence (Q9Y5N1 whole entry): as the sequence (Q9Y5N1 whole entry) above

A word on the Ki: it is the equilibrium dissociation constant of an inhibitor or competing ligand from its target. With `Cc1cc(Oc2ccc(C(=O)N3CCCN(C4CC4)CC3)cn2)ccc1Cl` [Example 12, [6-(4-Chloro-3-methyl-phenoxy)-pyridin-3-yl]-(4-cyclopropyl-[1,4]diazepan-1-yl)-methanone], the Ki was 5 nM in experiment [1] and 51 nM in experiment [2]. This compound showed a Kb in experiment [3] of 5.5 nM.

For `O=C(c1ccc(Sc2ccccc2)nc1)N1CCCN(C2CCC2)CC1` [Example 86, (4-Cyclobutyl-[1,4]diazepan-1-yl)-(6-phenylsulfanyl-pyridin-3-yl)-methanone], the inhibition constant Ki in experiment [1] amounted to 1 nM. Besides, in experiment [3] (setting [5]), the “Human pA2” value is on record as 9.48. The Kb in experiment [4] (setting [6]) is 3.16 nM.

Regarding `O=C(c1ccc(Sc2ccc(F)cc2)nc1)N1CCCN(C2CCC2)CC1` [Example 83, (4-Cyclobutyl-[1,4]diazepan-1-yl)-[6-(4-fluoro-phenylsulfanyl)-pyridin-3-yl]-methanone], in experiment [3] (setting [5]), the “Human pA2” value came to 9.48. The Kb in experiment [4] (setting [6]) was 3.24 nM.

`O=C(c1ccc(Oc2ccc(Cl)c(Cl)c2)cn1)N1CCCN(C2CCC2)CC1` [Example 51, (4-Cyclobutyl-[1,4]diazepan-1-yl)-[5-(3,4-dichloro-phenoxy)-pyridin-2-yl]-methanone trifluoroacetic acid salt]: the Ki in experiment [1] was 2 nM; in experiment [2], 60 nM. For the same compound, the Kb in experiment [3] is 2.29 nM; in experiment [4] it was 21.9 nM.

As for `N#Cc1cccc(Oc2ccc(C(=O)N3CCCN(C4CC4)CC3)cn2)c1` [Example 11, 3-[5-(4-Cyclopropyl-[1,4]diazepane-1-carbonyl)-pyridin-2-yloxy]-benzonitrile], the Ki in experiment [1] turned out to be 7 nM; in experiment [2], 447 nM. Further, in experiment [3] (setting [5]), the “Human pA2” value is 8.53.

For the compound `O=C(c1ccc(Oc2ccc(F)cc2)nc1)N1CCCN(C2CCCC2)CC1` [Example 67, (4-Cyclopentyl-[1,4]diazepan-1-yl)-[6-(4-fluoro-phenoxy)-pyridin-3-yl]-methanone], the inhibition constant Ki in experiment [1] worked out at 2 nM. The Kb in experiment [3] is 1.35 nM; in experiment [4], 6.76 nM.

With `O=C(c1ccc(Oc2cccc(Cl)c2)nc1)N1CCCN(C2CCC2)CC1` [Example 24, [6-(3-Chloro-phenoxy)-pyridin-3-yl]-(4-cyclobutyl-[1,4]diazepan-1-yl)-methanone], the values for the inhibitory constant (Ki) in experiment [1] and in experiment [2] were 1 nM and 15 nM, respectively. In addition, the Kb in experiment [3] (setting [7]) is 0.708 nM; in experiment [4] (setting [6]), 4.37 nM.

In the case of `Cc1ccccc1Oc1ccc(C(=O)N2CCCN(C3CCC3)CC2)cn1` [Example 102, (4-Cyclobutyl-[1,4]diazepan-1-yl)-(6-o-tolyloxy-pyridin-3-yl)-methanone], the Ki in experiment [1] came to 1 nM; in experiment [2], 17 nM. The Kb in experiment [3] was 0.2 nM; in experiment [4], 1.2 nM.

Turning to `O=C(c1ccc(Oc2cccc(F)c2)nc1)N1CCCN(C2CCC2)CC1` [Example 39, (4-Cyclobutyl-[1,4]diazepan-1-yl)-[6-(3-fluoro-phenoxy)-pyridin-3-yl]-methanone], the Ki worked out at 1 nM in experiment [1] and 21 nM in experiment [2]. Besides, in experiment [3] (setting [5]), the “Human pA2” value amounted to 9.40. Also, the “Rat pA2” value in experiment [4] (setting [8]) worked out at 8.38.

`O=C(c1ccc(Oc2ccc(F)cc2F)nc1)N1CCCN(C2CCC2)CC1` [Example 30, (4-Cyclobutyl-[1,4]diazepan-1-yl)-[6-(2,4-difluoro-phenoxy)-pyridin-3-yl]-methanone]: the inhibition constant Ki was 1 nM in experiment [1] and 26 nM in experiment [2]. In addition, the Kb is 0.537 nM in experiment [3] and 4.17 nM in experiment [4].

In the case of `O=C(c1ccc(Oc2ccc(Cl)cc2)nc1)N1CCCN(C2CCC2)CC1` [Example 25, [6-(4-Chloro-phenoxy)-pyridin-3-yl]-(4-cyclobutyl-[1,4]diazepan-1-yl)-methanone], the inhibition constant Ki in experiment [1] stood at 1 nM; in experiment [2] it was 25 nM. Also, in experiment [3] (setting [5]), the “Human pA2” value is recorded as 9.22. In addition, the Kb in experiment [4] (setting [6]) is 3.8 nM.

As to `N#Cc1nc(C(=O)N2CCCN(C3CC3)CC2)ccc1Oc1cccnc1` [Example 56, 6-(4-Cyclopropyl-[1,4]diazepane-1-carbonyl)-3-(pyridin-3-yloxy)-pyridine-2-carbonitrile hydrochloride salt], the inhibition constant (Ki) in experiment [1] is 5 nM; in experiment [2], 179 nM. Besides, the values for the Kb in experiment [3] and in experiment [4] were 2.34 nM and 13.8 nM, respectively.

With `O=C(c1ccc(Oc2ccccc2)nc1)N1CCCN(C2CCCC2)CC1` [Example 65, (4-Cyclopentyl-[1,4]diazepan-1-yl)-(6-phenoxy-pyridin-3-yl)-methanone], the Ki in experiment [1] is 2 nM. Further, the Kb was 1.15 nM in experiment [3] and 0.661 nM in experiment [4].

With `O=C(c1ccc(Oc2ccc(Cl)c(Cl)c2)nc1)N1CCCN(C2CCC2)CC1` [Example 14, (4-Cyclobutyl-[1,4]diazepan-1-yl)-[6-(3,4-dichloro-phenoxy)-pyridin-3-yl]-methanone], the inhibition constant (Ki) was 2 nM in experiment [1] and 10 nM in experiment [2]. Besides, in experiment [3] (setting [5]), the “Human pA2” value is 9.26. In experiment [4] (setting [8]), the “Rat pA2” value turned out to be 8.16.

Turning to `CSc1ccc(Oc2ccc(C(=O)N3CCCN(C4CCC4)CC3)cn2)cc1C` [Example 40, (4-Cyclobutyl-[1,4]diazepan-1-yl)-[6-(3-methyl-4-methylsulfanyl-phenoxy)-pyridin-3-yl]-methanone], the results for the Ki in experiment [1] and in experiment [2] were 1 nM and 36 nM, respectively. In addition, the Kb in experiment [3] was 1.32 nM; in experiment [4] it was 13.5 nM.

Consider `N#Cc1nc(C(=O)N2CCCN(C3CC3)CC2)ccc1Oc1ccc(F)cc1` [Example 59, 6-(4-Cyclopropyl-[1,4]diazepane-1-carbonyl)-3-(4-fluoro-phenoxy)-pyridine-2-carbonitrile], for which the inhibitory constant (Ki) in experiment [1] turned out to be 3 nM. Also, the Kb was 3.09 nM in experiment [3] and 26.9 nM in experiment [4].

As for `O=C(c1ccc(Oc2ccccc2F)nc1)N1CCCN(C2CC2)CC1` [Example 31, (4-Cyclopropyl-[1,4]diazepan-1-yl)-[6-(2-fluoro-phenoxy)-pyridin-3-yl]-methanone], the Ki in experiment [1] was determined as 4 nM; in experiment [2], 39 nM. Besides, the Kb is 2.4 nM in experiment [3] and 7.59 nM in experiment [4].

`O=C(c1ccc(Oc2ccc(F)cc2)nc1)N1CCN(C2CCCC2)CC1` [Example 74, (4-Cyclopentyl-piperazin-1-yl)-[6-(4-fluoro-phenoxy)-pyridin-3-yl]-methanone]: in experiment [1], the Ki was found to be 7 nM. The Kb in experiment [3] was 8.91 nM; in experiment [4], 36.3 nM.

Regarding `Cc1ccc(Oc2ccc(C(=O)N3CCCN(C4CCC4)CC3)cn2)cc1` [Example 104, (4-Cyclobutyl-[1,4]diazepan-1-yl)-(6-p-tolyloxy-pyridin-3-yl)-methanone], in experiment [1], the Ki stood at 2 nM. Further, the Kb in experiment [3] was 0.724 nM; in experiment [4], 4.27 nM.

Consider `O=C(c1ccc(Oc2ccc(Cl)cc2)cn1)N1CCCN(C2CCC2)CC1` [Example 68, [5-(4-Chloro-phenoxy)-pyridin-2-yl]-(4-cyclobutyl-[1,4]diazepan-1-yl)-methanone trifluoroacetic acid salt], for which the Ki in experiment [1] came to 2 nM. The “Human pA2” value in experiment [3] (setting [5]) was 8.61. In addition, in experiment [4] (setting [6]), the Kb is 15.8 nM.

Turning to `O=C(c1ccc(Sc2ccc(F)cc2)cn1)N1CCCN(C2CCC2)CC1` [Example 84, (4-Cyclobutyl-[1,4]diazepan-1-yl)-[5-(4-fluoro-phenylsulfanyl)-pyridin-2-yl]-methanone trifluoroacetic acid salt], the Ki stood at 2 nM in experiment [1] and 37 nM in experiment [2].

Consider `O=C(c1ccc(Oc2ccc(F)cc2)nc1)N1CCCN(C2CC2)CC1` [Example 18, (4-Cyclopropyl-[1,4]diazepan-1-yl)-[6-(4-fluoro-phenoxy)-pyridin-3-yl]-methanone], for which the inhibition constant Ki in experiment [1] is 2 nM; in experiment [2], 68 nM.

Regarding `N#Cc1nc(C(=O)N2CCCN(C3CC3)CC2)ccc1Oc1ccccc1F` [Example 61, 6-(4-Cyclopropyl-[1,4]diazepane-1-carbonyl)-3-(2-fluoro-phenoxy)-pyridine-2-carbonitrile], the inhibition constant Ki in experiment [1] came out at 6 nM. Moreover, the Kb is 3.63 nM in experiment [3] and 32.4 nM in experiment [4].

`O=C(c1ccc(Oc2ccc(Cl)c(Cl)c2)nc1)N1CCCN(C2CCCC2)CC1` [Example 66, (4-Cyclopentyl-[1,4]diazepan-1-yl)-[6-(3,4-dichloro-phenoxy)-pyridin-3-yl]-methanone]: the Ki in experiment [1] is 1 nM. For the same compound, the values for the Kb in experiment [3] and in experiment [4] were 1.12 nM and 11.5 nM, respectively.

In the case of `O=C(c1ccc(Oc2ccccc2Cl)nc1)N1CCCN(C2CCC2)CC1` [Example 73, [6-(2-Chloro-phenoxy)-Pyridin-3-yl]-(4-cyclobutyl-[1,4]diazepan-1-yl)-methanone], the Ki in experiment [1] is 4 nM. Also, the Kb in experiment [3] (setting [7]) was 0.309 nM; in experiment [4] (setting [6]), 1.2 nM.

Turning to `O=C(c1ccc(Oc2cccc(Cl)c2)cn1)N1CCCN(C2CCC2)CC1` [Example 70, [5-(3-Chloro-phenoxy)-pyridin-2-yl]-(4-cyclobutyl-[1,4]diazepan-1-yl)-methanone trifluoroacetic acid salt], the inhibition constant Ki in experiment [1] was 2 nM. Besides, the “Human pA2” value in experiment [3] (setting [5]) is 8.72. In experiment [4] (setting [6]), the Kb was 19.1 nM.

The record behind these values is patent publication US8940731B2, “Substituted pyridyl amide compounds as modulators of the histamine H3 receptor” (Janssen Pharmaceutica NV, priority 2006, dated 2015).
